From patent US7482137B2, “Hybrid glycosylated products and their production and use” (Biotica Technology Limited, priority 2000, dated 2009) come the findings set out here.

The experiment deals with Bacillus subtilis ATCC 6633. Put plainly: Filter disc bioassay, zones of inhibition in B. subtilis lawn. The experiment is classed as cell-based. Particulars: 10-fold dilution series of 1.1 mg in 200 μl methanol, 10 μl per filter disc; indicator strain Bacillus subtilis ATCC 6633. How it is done: Cosmid no 7 which has been isolated from a Streptomyces fradiae cosmid library, was kindly provided by J. Corts. E. coli transformants were selected with 100 ug/ml ampicillin. The Saccharopolyspora erythraea NRRL 2338-red variant strain (Hessler et al., Appl. Microbiol. Biotechnol. (1997) 47:398-404) was kindly provided by J. M. Weber and was routinely maintained on M1-102 agar (Kaneda et al. J. Biol. Chem. (1962) 237:322-327), R2T20 (Yamamoto et al. J. Antibiot. (1986) 34:1304-1313), R2T2 (same as R2T (Weber et al. J. Bacterial. (1985)164:425-433), but without peptone), and TSB (Difco) for liquid cultures at 30° C. Bacillus subtilis ATCC 6633 was used in bioassays to assess erythromycin production as described (Gaisser et al. (1997), supra). […] Both metabolites (10 μl of 10 mM stock solution) were applied to agar wells cut into the S. erythraea lawn and incubated at 30° C. overnight as described (Gaisser et al. (1997) supra) and the development of zones of inhibition in the B. subtilis lawn around S. erythraea colonies was assessed. […]
Bacillus subtilis ATCC 6633 was used in bioassays as described previously (Gaisser et al., 1998). […] The development of zones of inhibition in the B. subtilis lawn was assessed.

On to `CCC1OC(=O)C(C)C(OC2OC(C)C(O)C(O)C2OC)C(C)C(OC2OC(C)CC(N(C)C)C2O)C(C)(O)CC(C)C(=O)C(C)C(O)C1C` (stereo not shown) [3-O-(2′-O-methylrhamnosyl)erythromycin D], for which the “bioactivity, fold less compared to erythromycin A (size of the halos around filter discs)” value was “about 100 fold”.
